Data: ChEMBL document CHEMBL4814050, “Identification of gallic acid as a active ingredient of Syzygium aromaticum against tacrolimus-induced damage in renal epithelial LLC-PK1 cells and rat kidney” (Bioorg Med Chem Lett, 2021)
Active and inactive are the calls of the source. The rule behind the calls is not given here.

How the values were obtained:
[1] = Antioxidant activity assessed as reduction in FK506-induced ROS production by […] assay; format: functional; details: dose 0.1-100 µM
[2] = species on record: Rattus norvegicus; experiment: Nephroprotective activity in Sprague-Dawley rat assessed as reduction in FK506-induced kidney dysfunction by measuring decrease in serum creatinine level measured after 14 days; format: functional, organism-based; details: time 14.0 day
[3] = system: LLC-PK1; experiment: Cytoprotective activity against pig LLC-PK1 cells assessed as reduction in FK506-induced cytotoxicity incubated for 2 hrs followed by FK506 stimulation and measured after 24 hrs by MTT assay; format: functional, cell-based; details: Sus scrofa, dose 12.5-100 µM, time 26.0 hrs

Structure (SMILES)	Activity [1]	Activity [2]	Activity [3]
O=C(O)c1cc(O)c(O)c(O)c1	Dose-Dependent Effect	Active	Dose-Dependent Effect
O=C1O[C@H]([C@@H](O)CO)C(O)=C1O	Active	–	–
O=C(O[C@@H]1Cc2c(O)cc(O)cc2O[C@@H]1c1cc(O)c(O)c(O)c1)c1cc(O)c(O)c(O)c1	Dose-Dependent Effect	–	Dose-Dependent Effect
